Measured values: patent publication US20130303509A1, “NAMPT INHIBITORS” (AbbVie Inc., priority 2012, published 2013)

Each compound was assayed on PC3 cells (assay: NAMPT Cell Proliferation Assay). Conditions: Homo sapiens, PC-3, 120 h, 5 days incubation, cell viability by Cell Titer Glo.
Type: cell-based
Procedure, shortened: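 Seeded at 500 cells/well in RPMI with 10% heat-inactivated FBS and left to attach overnight at 37° C, 5% CO2. Compounds were added as 10-fold dilutions […] for 5 days, then viability was read by CellTiter-Glo. IC50s came from sigmoidal fits of percent inhibition.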

SMILES	IC50
O=C(Nc1ccc(C2CCN(C(=O)c3ccccc3Cl)CC2)cc1)C1CN(c2ccnnc2)C1 [Example 525, N-{4-[1-(2-chlorobenzoyl)piperidin-4-yl]phenyl}-1-(pyridazin-4-yl)azetidine-3-carboxamide]	0.93 nM
O=C(Nc1ccc(C2CCN(C(=O)c3nccs3)CC2)cc1)C1CN(c2ccnnc2)C1 [Example 526, 1-(pyridazin-4-yl)-N-{4-[1-(1,3-thiazol-2-ylcarbonyl)piperidin-4-yl]phenyl}azetidine-3-carboxamide]	0.94 nM
O=C(Nc1ccc(C2CCN(C(=O)CC3CC3)CC2)cc1)C1CN(c2ccnnc2)C1 [Example 527, N-{4-[1-(cyclopropylacetyl)piperidin-4-yl]phenyl}-1-(pyridazin-4-yl)azetidine-3-carboxamide]	7.78 nM
CC(C)C(=O)N1CCC(c2ccc(NC(=O)C3CN(c4ccnnc4)C3)cc2)CC1 [Example 528, N-{4-[1-(2-methylpropanoyl)piperidin-4-yl]phenyl}-1-(pyridazin-4-yl)azetidine-3-carboxamide]	19.2 nM
O=C(Nc1ccc(C2CCN(C(=O)c3ccc(F)cc3)CC2)cc1)C1CN(c2ccnnc2)C1 [Example 529, N-{4-[1-(4-fluorobenzoyl)piperidin-4-yl]phenyl}-1-(pyridazin-4-yl)azetidine-3-carboxamide]	9.33 nM
O=C(Nc1ccc(C2CCN(C(=O)c3ccsc3)CC2)cc1)C1CN(c2ccnnc2)C1 [Example 530, 1-(pyridazin-4-yl)-N-{4-[1-(thiophen-3-ylcarbonyl)piperidin-4-yl]phenyl}azetidine-3-carboxamide]	2.02 nM
O=C(Nc1ccc(C2CCN(C(=O)Cc3ccc(F)cc3)CC2)cc1)C1CN(c2ccnnc2)C1 [Example 531, N-(4-{1-[(4-fluorophenyl)acetyl]piperidin-4-yl}phenyl)-1-(pyridazin-4-yl)azetidine-3-carboxamide]	17.6 nM
O=C(Nc1ccc(C2CCN(C(=O)Cc3cc(F)cc(F)c3)CC2)cc1)C1CN(c2ccnnc2)C1 [Example 532, N-(4-{1-[(3,5-difluorophenyl)acetyl]piperidin-4-yl}phenyl)-1-(pyridazin-4-yl)azetidine-3-carboxamide]	7.24 nM
O=C(Nc1ccc(C2CCN(C(=O)c3ccc(F)c(F)c3)CC2)cc1)C1CN(c2ccnnc2)C1 [Example 533, N-{4-[1-(3,4-difluorobenzoyl)piperidin-4-yl]phenyl}-1-(pyridazin-4-yl)azetidine-3-carboxamide]	24.6 nM
O=C(Nc1ccc(C2CCN(C(=O)Cc3cccc(F)c3)CC2)cc1)C1CN(c2ccnnc2)C1 [Example 534, N-(4-{1-[(3-fluorophenyl)acetyl]piperidin-4-yl}phenyl)-1-(pyridazin-4-yl)azetidine-3-carboxamide]	5.46 nM
O=C(Nc1ccc(C2CCN(C(=O)c3cccc(C(F)(F)F)c3)CC2)cc1)C1CN(c2ccnnc2)C1 [Example 535, 1-(pyridazin-4-yl)-N-(4-{1-[3-(trifluoromethyl)benzoyl]piperidin-4-yl}phenyl)azetidine-3-carboxamide]	9.39 nM
O=C(Nc1ccc(C2CCN(C(=O)Cc3ccc(F)cc3F)CC2)cc1)C1CN(c2ccnnc2)C1 [Example 536, N-(4-{1-[(2,4-difluorophenyl)acetyl]piperidin-4-yl}phenyl)-1-(pyridazin-4-yl)azetidine-3-carboxamide]	6.14 nM
O=C(Nc1ccc(C2CCN(C(=O)c3cscn3)CC2)cc1)C1CN(c2ccnnc2)C1 [Example 537, 1-(pyridazin-4-yl)-N-{4-[1-(1,3-thiazol-4-ylcarbonyl)piperidin-4-yl]phenyl}azetidine-3-carboxamide]	3.3 nM
O=C(Nc1ccc(C2CCN(C(=O)C3CCCO3)CC2)cc1)C1CN(c2ccnnc2)C1 (centres unmarked) [Example 538, 1-(pyridazin-4-yl)-N-{4-[1-(tetrahydrofuran-2-ylcarbonyl)piperidin-4-yl]phenyl}azetidine-3-carboxamide]	13.7 nM
Cc1ccc(C(=O)N2CCC(c3ccc(NC(=O)C4CN(c5ccnnc5)C4)cc3)CC2)s1 [Example 539, N-(4-{1-[(5-methylthiophen-2-yl)carbonyl]piperidin-4-yl}phenyl)-1-(pyridazin-4-yl)azetidine-3-carboxamide]	2.57 nM
O=C(Nc1ccc(C2CCN(C(=O)Cc3ccccc3F)CC2)cc1)C1CN(c2ccnnc2)C1 [Example 540, N-(4-{1-[(2-fluorophenyl)acetyl]piperidin-4-yl}phenyl)-1-(pyridazin-4-yl)azetidine-3-carboxamide]	3.91 nM
O=C(Nc1ccc(C2CCN(C(=O)C3CC3)CC2)cc1)C1CN(c2ccnnc2)C1 [Example 541, N-{4-[1-(cyclopropylcarbonyl)piperidin-4-yl]phenyl}-1-(pyridazin-4-yl)azetidine-3-carboxamide]	4.2 nM
O=C(Nc1ccc(C2CCN(C(=O)C3CCOC3)CC2)cc1)C1CN(c2ccnnc2)C1 (centres unmarked) [Example 542, 1-(pyridazin-4-yl)-N-{4-[1-(tetrahydrofuran-3-ylcarbonyl)piperidin-4-yl]phenyl}azetidine-3-carboxamide]	67.6 nM
O=C(Nc1ccc(C2CCN(C(=O)c3ccccn3)CC2)cc1)C1CN(c2ccnnc2)C1 [Example 543, 1-(pyridazin-4-yl)-N-{4-[1-(pyridin-2-ylcarbonyl)piperidin-4-yl]phenyl}azetidine-3-carboxamide]	7.7 nM
O=C(Nc1ccc(C2CCN(C(=O)c3cccc(Cl)c3)CC2)cc1)C1CN(c2ccnnc2)C1 [Example 544, N-{4-[1-(3-chlorobenzoyl)piperidin-4-yl]phenyl}-1-(pyridazin-4-yl)azetidine-3-carboxamide]	7.17 nM
O=C(Nc1ccc(C2CCN(C(=O)c3ccc(Cl)cc3)CC2)cc1)C1CN(c2ccnnc2)C1 [Example 545, N-{4-[1-(4-chlorobenzoyl)piperidin-4-yl]phenyl}-1-(pyridazin-4-yl)azetidine-3-carboxamide]	15.2 nM
CC(C)(C(=O)N1CCC(c2ccc(NC(=O)C3CN(c4ccnnc4)C3)cc2)CC1)c1ccccc1 [Example 546, N-{4-[1-(2-methyl-2-phenylpropanoyl)piperidin-4-yl]phenyl}-1-(pyridazin-4-yl)azetidine-3-carboxamide]	1.41 nM
O=C(Nc1ccc(C2CCN(C(=O)c3ccc(F)cc3F)CC2)cc1)C1CN(c2ccnnc2)C1 [Example 547, N-{4-[1-(2,4-difluorobenzoyl)piperidin-4-yl]phenyl}-1-(pyridazin-4-yl)azetidine-3-carboxamide]	3.02 nM
COCC(=O)N1CCC(c2ccc(NC(=O)C3CN(c4ccnnc4)C3)cc2)CC1 [Example 548, N-{4-[1-(methoxyacetyl)piperidin-4-yl]phenyl}-1-(pyridazin-4-yl)azetidine-3-carboxamide]	64.9 nM
O=C(Nc1ccc(C2CCN(C(=O)c3cccs3)CC2)cc1)C1CN(c2ccnnc2)C1 [Example 549, 1-(pyridazin-4-yl)-N-{4-[1-(thiophen-2-ylcarbonyl)piperidin-4-yl]phenyl}azetidine-3-carboxamide]	0.67 nM
O=C(Nc1ccc(C2CCN(C(=O)Cc3cccc(C(F)(F)F)c3)CC2)cc1)C1CN(c2ccnnc2)C1 [Example 550, 1-(pyridazin-4-yl)-N-[4-(1-{[3-(trifluoromethyl)phenyl]acetyl}piperidin-4-yl)phenyl]azetidine-3-carboxamide]	8.21 nM
